Results published in ChEMBL document CHEMBL1140314, “Adamantyl cannabinoids: a novel class of cannabinergic ligands” (J Med Chem, 2005).

Tests used:
Cannabinoid receptor 1 = Cannabinoid receptor 1 (Rattus norvegicus, UniProt P20272); assay: Inhibition of [3H]CP-55940 binding to cannabinoid receptor 1 of rat brain
Cannabinoid receptor 2 = Cannabinoid receptor 2 (Mus musculus, UniProt P47936); assay: Inhibition of [3H]CP-55940 binding to cannabinoid receptor 2 of mouse spleen membranes; assay type: tissue-based
Cannabinoid receptor 2, sequence (P47936 whole entry): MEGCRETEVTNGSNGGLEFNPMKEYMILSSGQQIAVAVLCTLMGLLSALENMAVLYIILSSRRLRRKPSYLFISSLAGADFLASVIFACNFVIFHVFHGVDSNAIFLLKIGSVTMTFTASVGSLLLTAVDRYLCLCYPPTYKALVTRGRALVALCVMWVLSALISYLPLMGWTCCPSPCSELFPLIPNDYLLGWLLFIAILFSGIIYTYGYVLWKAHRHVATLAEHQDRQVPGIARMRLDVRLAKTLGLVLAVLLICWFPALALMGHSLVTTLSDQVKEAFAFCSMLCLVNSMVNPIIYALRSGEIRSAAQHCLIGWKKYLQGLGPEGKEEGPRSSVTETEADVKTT

Rattus norvegicus [1] = assay: In vivo cannabinergic activity in rat after 90 min of dose administration (0.03-1.8 mg/kg) using drug discrimination assay; assay type: functional
Rattus norvegicus [2] = assay: In vivo cannabinergic activity in rat after 30 min of dose administration (0.03-1.8 mg/kg) using drug discrimination assay; assay type: functional; conditions: 0.5 h

Cannabinoid receptor 1, sequence (P20272 whole entry): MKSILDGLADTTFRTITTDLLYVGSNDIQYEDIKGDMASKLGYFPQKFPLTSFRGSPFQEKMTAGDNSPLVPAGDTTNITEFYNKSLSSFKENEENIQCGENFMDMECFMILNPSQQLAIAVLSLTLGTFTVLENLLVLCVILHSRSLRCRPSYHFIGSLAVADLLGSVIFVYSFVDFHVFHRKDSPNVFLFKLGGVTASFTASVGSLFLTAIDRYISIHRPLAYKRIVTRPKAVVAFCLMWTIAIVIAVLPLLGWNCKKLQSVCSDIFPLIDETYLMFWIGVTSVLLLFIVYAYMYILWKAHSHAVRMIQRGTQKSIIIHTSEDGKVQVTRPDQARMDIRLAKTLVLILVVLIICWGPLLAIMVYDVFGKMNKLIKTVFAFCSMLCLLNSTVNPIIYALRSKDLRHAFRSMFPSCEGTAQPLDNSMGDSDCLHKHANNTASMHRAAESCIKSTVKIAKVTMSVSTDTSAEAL

| SMILES | Ki (Cannabinoid receptor 1) | Ki (Cannabinoid receptor 2) | ED50 (Rattus norvegicus [1]) | ED50 (Rattus norvegicus [1]; Rattus norvegicus, 1.5 h, read-out: ED50) | ED50 (Rattus norvegicus [2]) |
| --- | --- | --- | --- | --- | --- |
| CC1=CC[C@@H]2[C@@H](C1)c1c(O)cc(C=C3C4CC5CC(C4)CC3C5)cc1OC2(C)C | 48.6 nM | 8.9 nM | – | – | – |
| CC1=CC[C@@H]2[C@@H](C1)c1c(O)cc(C3C4CC5CC(C4)CC3C5)cc1OC2(C)C (stereo partly drawn) | 34.9 nM | 14 nM | – | – | – |
| CC1=CC[C@@H]2[C@@H](C1)c1c(O)cc(CC3C4CC5CC(C4)CC3C5)cc1OC2(C)C (stereo partly drawn) | 79.7 nM | 76 nM | – | – | – |
| CC1=CC[C@@H]2[C@@H](C1)c1c(O)cc(C34CC5CC(CC(C5)C3)C4)cc1OC2(C)C | 6.8 nM | 52 nM | 0.41 mg/kg | 0.44 mg/kg | 0.68 mg/kg |
| CC1=CC[C@@H]2[C@@H](C1)c1c(O)cc(CC34CC5CC(CC(C5)C3)C4)cc1OC2(C)C | 29.3 nM | 26.9 nM | – | – | – |
